Data from paper PMC4038168 (Chemical communications (Cambridge, England), 2014).
“Also recorded” adds a separate entry of the source.

How the values were obtained:
[1] = molecular target: T1, rat FAAH (r-FAAH) (Rattus norvegicus, UniProt P97612); assay: rat FAAH inhibition; assay type: biochemical
T1 sequence (P97612 1-579): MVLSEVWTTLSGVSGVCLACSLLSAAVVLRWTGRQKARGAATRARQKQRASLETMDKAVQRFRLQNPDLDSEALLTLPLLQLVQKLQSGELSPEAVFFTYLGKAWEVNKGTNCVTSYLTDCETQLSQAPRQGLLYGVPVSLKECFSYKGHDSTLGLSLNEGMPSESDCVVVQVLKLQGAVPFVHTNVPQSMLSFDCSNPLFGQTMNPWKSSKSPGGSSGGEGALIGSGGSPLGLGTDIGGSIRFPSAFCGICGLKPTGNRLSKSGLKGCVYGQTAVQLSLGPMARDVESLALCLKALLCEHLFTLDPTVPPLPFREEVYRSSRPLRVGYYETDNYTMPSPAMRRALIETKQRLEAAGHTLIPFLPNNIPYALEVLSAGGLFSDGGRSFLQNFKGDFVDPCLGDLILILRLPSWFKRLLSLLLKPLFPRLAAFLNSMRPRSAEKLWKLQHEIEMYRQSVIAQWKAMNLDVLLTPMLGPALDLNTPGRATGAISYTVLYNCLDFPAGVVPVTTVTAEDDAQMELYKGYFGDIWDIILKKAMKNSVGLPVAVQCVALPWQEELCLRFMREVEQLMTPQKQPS

[2] = molecular target: T2, human FAAH (h-FAAH) (Homo sapiens, UniProt O00519); assay: human FAAH inhibition; assay type: biochemical
T2 sequence (O00519 1-579): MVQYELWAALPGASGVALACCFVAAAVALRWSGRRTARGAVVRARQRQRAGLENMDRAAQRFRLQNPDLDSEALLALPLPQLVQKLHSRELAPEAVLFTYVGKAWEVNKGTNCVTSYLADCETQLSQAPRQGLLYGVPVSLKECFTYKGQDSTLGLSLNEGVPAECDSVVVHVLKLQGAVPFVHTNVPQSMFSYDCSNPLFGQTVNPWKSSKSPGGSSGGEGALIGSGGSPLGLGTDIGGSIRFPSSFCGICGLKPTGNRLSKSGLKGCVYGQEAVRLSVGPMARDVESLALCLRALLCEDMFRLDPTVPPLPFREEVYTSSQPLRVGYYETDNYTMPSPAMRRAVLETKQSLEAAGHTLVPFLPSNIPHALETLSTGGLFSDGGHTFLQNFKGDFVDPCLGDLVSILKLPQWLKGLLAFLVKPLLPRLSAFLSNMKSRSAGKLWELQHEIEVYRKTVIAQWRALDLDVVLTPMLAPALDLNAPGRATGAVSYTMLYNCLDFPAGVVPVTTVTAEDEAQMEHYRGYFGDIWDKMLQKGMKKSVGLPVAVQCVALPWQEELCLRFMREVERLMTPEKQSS

[3] = molecular target: T3, cannabinoid receptor CB1 (Homo sapiens, UniProt P21554); assay: CB1 functional assay; assay type: cell-based
T3 sequence (P21554 whole entry): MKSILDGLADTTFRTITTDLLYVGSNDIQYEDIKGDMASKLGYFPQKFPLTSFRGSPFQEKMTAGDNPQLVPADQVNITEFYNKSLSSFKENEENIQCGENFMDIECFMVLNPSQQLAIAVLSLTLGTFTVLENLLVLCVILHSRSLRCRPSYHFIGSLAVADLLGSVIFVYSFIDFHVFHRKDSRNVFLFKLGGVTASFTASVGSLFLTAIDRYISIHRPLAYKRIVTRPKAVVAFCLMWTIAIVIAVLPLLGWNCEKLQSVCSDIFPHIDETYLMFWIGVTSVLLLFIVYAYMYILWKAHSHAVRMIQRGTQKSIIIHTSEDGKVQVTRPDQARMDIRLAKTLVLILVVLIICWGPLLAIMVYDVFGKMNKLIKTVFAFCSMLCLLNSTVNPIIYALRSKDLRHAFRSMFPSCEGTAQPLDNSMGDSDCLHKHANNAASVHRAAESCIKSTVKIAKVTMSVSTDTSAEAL

[4] = molecular target: human DRD3 (Homo sapiens, UniProt P35462); assay: human DRD3 functional assay; assay type: cell-based
Sequence of human DRD3 (P35462 whole entry): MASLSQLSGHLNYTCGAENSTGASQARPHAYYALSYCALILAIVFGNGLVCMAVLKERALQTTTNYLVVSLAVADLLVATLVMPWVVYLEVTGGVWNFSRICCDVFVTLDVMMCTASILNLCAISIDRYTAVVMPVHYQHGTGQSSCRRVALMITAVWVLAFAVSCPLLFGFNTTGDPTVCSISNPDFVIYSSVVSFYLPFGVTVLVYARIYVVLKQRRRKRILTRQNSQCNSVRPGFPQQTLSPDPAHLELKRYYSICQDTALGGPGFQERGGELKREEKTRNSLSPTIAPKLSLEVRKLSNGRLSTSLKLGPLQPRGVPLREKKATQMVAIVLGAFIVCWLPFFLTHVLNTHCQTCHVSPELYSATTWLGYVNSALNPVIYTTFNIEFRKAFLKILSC

[5] = molecular target: T3, cannabinoid receptor CB1; details: cited from earlier work

O=C(NCCCCN1CCN(c2cccc(Cl)c2Cl)CC1)c1ccc(-c2ccccn2)cc1 [Compound 2, CJB090]
inhibitory activity on r-FAAH (in words) [1]: did not show any significant inhibitory activity
inhibitory activity on h-FAAH (in words) [2]: did not show any significant inhibitory activity
CB1 activity (in words) [3]: rather potent CB1 agonist
EC50 ([3]; read-out: CB1 EC50): 840 nM

COc1ccccc1N1CCN(CCCCNC(=O)c2ccc3ccccc3c2)CC1 [Compound 3, BP-897]
inhibitory activity on r-FAAH (in words) [1]: did not show any significant inhibitory activity
inhibitory activity on h-FAAH (in words) [2]: did not show any significant inhibitory activity
CB1 activity (in words) [3]: completely devoid of CB1 activity; also recorded: did not show any activity

NC(=O)c1cccc(-c2cccc(OC(=O)NC3CCCCC3)c2)c1 [Compound 5, URB597]
activity on DRD3 (in words) [4]: no activity
effect on CB1 (in words) [5]: no effect
